Tests used:
[1] = test system: patients with Marfan syndrome; details: male less than 16 years old, female less than 15; losartan p=0.002, atenolol p<0.001; cited from earlier work
FBN1 mgR/mgR mice = experiment: Survival and ascending aortic diameter in FBN1 mgR/mgR mice with established aortic dilation infused with enalapril or losartan by osmotic mini pump; assay type: in vivo; details: for survival after 12 weeks versus PBS: mini pump from 6 weeks of age
Procedure: Male and female fibrillin-1 hypomorphic (FBN1 mgR/mgR) mice (n=10-12/group) were stratified into treatment groups by aortic diameter at 6 weeks of age to ensure an equivalent average aortic diameter in each group at the start of the study. Osmotic mini pumps filled with PBS (vehicle), enalapril (2 mg/kg/d), or losartan (20 mg/kg/d) were implanted subcutaneously into mice after stratification. Mini pumps infusing drug or vehicle were replaced every 4 weeks for a total duration of 12 weeks. Wild type littermates (n=10) were infused with PBS as a negative control to the Marfan mouse model. Ascending aortic diameters from male and female FBN1 mgR/mgR mice and their wild type littermates were assessed by ultrasound every 4 weeks from 6 to 18 weeks of age. Aortic diameters were measured luminal edge to luminal edge during diastole.

[2] = test system: individuals with Marfan syndrome; details: cited from earlier work
[3] = test system: male FBN1^mgR/mgR (mgR) mice; experiment: Losartan withdrawal in male FBN1^mgR/mgR mice, death by aortic rupture; assay type: in vivo
From the text: Withdrawal of losartan during late adolescence (52 days of age) was followed by 6/10 mice dying by aortic rupture within 4 weeks (shaded area). (*=p<0.05. Censored data include humane endpoints and non-rupture events.)

mouse models of TAA = details: cited from earlier work
Fbn1^mgR/mgR mice = experiment: Survival of Fbn1^mgR/mgR mice given losartan in drinking water starting at P24 or P50; assay type: in vivo; details: for survival compared to Fbn1^mgR/mgR mice receiving no drug, survival analysis starting at P50: p=0.017
From the text: Male (n=40) and female (n=28) Fbn1^mgR/mgR mice were randomized to receive losartan in drinking water (0.6 g/L) starting at either postnatal day 24 (P24) or 50 (P50). Data derived from these mice was compared to littermate Fbn1^mgR/mgR (20 males, 14 females) and wild type (15 males, 15 females) mice that were given vehicle only. All mice were terminated at 20 weeks of age. Mice that died during the study were necropsied to determine cause of death.

[4] = test system: patients with Marfan syndrome; details: median follow-up 8 years; control group 5; p=0.14; cited from earlier work
[5] = female mgR mice, PBS=1.92+/-0.13, p=0.86, no significant difference
[6] = male mgR mice, PBS=2.69+/-0.19 mm, p=0.24, no significant difference

Compound: CC(C)NCC(O)COc1ccc(CC(N)=O)cc1 (stereo not drawn) [atenolol]
- change in aortic-root z scores over time with younger age of initiation [1]: greater decrease

Compound: CCOC(=O)[C@H](CCc1ccccc1)N[C@@H](C)C(=O)N1CCC[C@H]1C(=O)O [enalapril]
- survival after 12 weeks versus PBS (FBN1 mgR/mgR mice; female mgR mice, p=0.094): no significant difference
- maximum ascending aortic diameter after treatment for 12 weeks (FBN1 mgR/mgR mice; [5]): 1.89+/−0.31
- survival after 12 weeks versus PBS (FBN1 mgR/mgR mice; male mgR mice, p=0.224): no significant difference
- maximum ascending aortic diameter after treatment for 12 weeks (FBN1 mgR/mgR mice; [6]): 2.04+/−0.27 mm

Compound: CCCCC1=NC2(CCCC2)C(=O)N1Cc1ccc(-c2ccccc2-c2nnn[nH]2)cc1 [irbesartan]
- aortic root expansion [2]: significantly attenuated

Compound: CCCCc1nc(Cl)c(CO)n1Cc1ccc(-c2ccccc2-c2nn[nH]n2)cc1 [losartan]
- mortality due to aortic rupture compared to mgR controls ([3]; male mgR mice, losartan in drinking water from 24 days of age, p<0.05): protected from mortality
- mice dying by aortic rupture within 4 weeks of losartan withdrawal ([3]; withdrawal at 52 days of age): 6/10
- change in aortic-root z scores over time with younger age of initiation [1]: greater decrease
- efficacy when administered after significant thoracic aortic dilation has already occurred (FBN1 mgR/mgR mice; FBN1^mgR/mgR mice): not effective
- survival after 12 weeks versus PBS (FBN1 mgR/mgR mice; female mgR mice, p=0.094): no significant difference
- maximum ascending aortic diameter after treatment for 12 weeks (FBN1 mgR/mgR mice; [5]): 1.98+/−0.17
- survival after 12 weeks versus PBS (FBN1 mgR/mgR mice; male mgR mice, p=0.224): no significant difference
- maximum ascending aortic diameter after treatment for 12 weeks (FBN1 mgR/mgR mice; [6]): 2.42+/−0.28 mm
- aortic root expansion in Fbn1^C1041G/+ mice (mouse models of TAA; literature ref 9): decrease aortic root expansion
- aortic expansion in other mouse models of TAA (mouse models of TAA; literature refs 6-11): reduces aortic expansion
- survival benefit in female mice (Fbn1^mgR/mgR mice; female Fbn1^mgR/mgR mice, survival not different from wild type females): not possible to detect a survival benefit
- survival compared to Fbn1^mgR/mgR males receiving no drug (Fbn1^mgR/mgR mice; males, losartan 0.6 g/L drinking water from P24, p<0.001, log-rank): increased
- survival compared to wild type male mice (Fbn1^mgR/mgR mice; males, losartan from P24, p=0.138): not different
- survival compared to wild type mice (Fbn1^mgR/mgR mice; males, losartan from P50, p=0.002): decreased
- survival compared to Fbn1^mgR/mgR mice receiving no drug, survival analysis starting at P50 (Fbn1^mgR/mgR mice; males, losartan from P50): increased survival
- survival compared to Fbn1^mgR/mgR mice receiving no drug, survival analysis starting at P50 (Fbn1^mgR/mgR mice; males, losartan from P50, listed as Losartan): improves survival
- survival compared to Fbn1^mgR/mgR males receiving no drug (Fbn1^mgR/mgR mice; males, losartan from P50, p=0.194): not different
- number of deaths [4]: 0

— US11649458B2, “Inhibiting angiotensinogen to attenuate aortic pathology in Marfan syndrome” (UNIVERSITY OF KENTUCKY RESEARCH FOUNDATION, priority 2020, dated 2023)
